Results from PubChem BioAssay AID179 (DTP/NCI, 2004).
The source made the active and inactive calls.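 How the source made its calls: active means compounds giving half or more protection of infected cells from virus-caused growth loss, again on retest; inactive means the rest.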

System: CEM cells HIV-1 protection, formazan growth assay
Assay: NCI AIDS Antiviral Assay
Details: for IC50: measured here: growth of uninfected CEM cells
How it was run: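 Category rules: moderately active means at least 50% protection on retest, and confirmed active means 100% protection reproducibly. The underlying data came from a formazan growth assay in HIV-1-infected CEM cells.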

Compound	EC50 [µM]	IC50 [µM]	outcome
OC1CSCCCSCC(O)CSCCCSC1 (stereo unspecified)	> 759	389	–
COc1ccc(-c2cncc(-c3ccc(OC)c(OC)c3)c2)cc1OC	> 20.4	> 20.4	–
CC(C)(C)c1ccc(CN2CCN(C(c3ccccc3)c3ccc(Cl)cc3)CC2)cc1 (stereo unspecified)	> 200	115	–
CC1(C)CCC[C@@]2(C)C1CC[C@@]1(CO1)[C@@H]2/C=C\C(C=O)CC=O (stereo partly specified)	–	–	inactive
CN1C/C(=C\c2cccs2)C2=NN(C)C(c3cccs3)C2C1 (stereo unspecified)	> 200	> 200	–
CCC[CH2][Sn]([CH2]CCC)([CH2]CCC)/[C](=C/[Si](C)(C)c1ccccc1)c1ccc2c(c1)OCO2	> 3.47	> 3.47	–
Cc1cn2c(=O)c3ncn(C4OC(CO)C(O)C4O)c3n(C)c2n1 (stereo unspecified)	–	–	inactive
COc1cccc(NC(=O)N/C(=C/c2ccc(N(CCC#N)CCC#N)cc2)NC(=O)c2cc([N+](=O)[O-])ccc2Cl)c1	> 12.3	11.5	–
Nc1cccc(P(N)(N)=O)c1	> 200	> 200	–
Cc1cccc(C)c1NC(=O)CCc1nc(=S)[nH][nH]1	> 468	> 468	–
CCCCCCCCCCCCC1N=C(N)N2CCCC2=C1C(=O)OC (stereo unspecified)	> 200	4.9	–
CCOC(=O)[C@@]12C[C@](/C=C/OC)(O[Si](C)(C)C)[C@@]13c1cc(OC)c(OC)cc1CCN3C(=O)C2O (stereo partly specified)	> 200	> 200	–
COc1ccc2c(c1)C(=O)C1CC(=O)CCC21 (stereo unspecified)	> 288	> 288	–
CC(C)Cc1cnc(CC(C)C)c(-c2cc3ccccc3[nH]2)n1	> 8.91	> 8.91	–
N#CCN1CCOCCOCCN(CC#N)CCOCCOCC1	–	–	inactive
N#CCCC(C#N)(C#N)CCC#N	> 759	> 759	–
CN1C(=O)C(O)Nc2ncncc21 (stereo unspecified)	> 200	32.4	–
CC1(C)COC(c2ccccc2-c2ccccc2)=N1	> 200	132	–
Cn1c(=O)c2c(n(C)c1=O)n1c(SCc3ccccc3)nnc1n2C	> 200	182	–
COc1ccc(C(=O)C(C(=O)C(=O)Nc2nc3ccc(OC)cc3s2)c2ccc(OC)cc2)cc1 (stereo unspecified)	> 38	> 38	–
CN(/N=C/c1ccccn1)C1=NCCN1	> 200	> 200	–

Compound	EC50 [µM]	IC50 [µM]	outcome
COC(=O)CC[C@@H](NC(=O)C(C)NC(=O)COC1C(O)C(COC(=O)CCCCCCCCCCNC(=O)c2ccc([N+](=O)[O-])c3[nH]c4cc(Br)ccc4c(=O)c23)OC(OCc2ccccc2)C1NC(C)=O)C(N)=O (stereo partly specified)	–	–	inactive
Cc1ccc2c(c1)c1ccc3c(c1n2C)C(=O)C=CC3=O	> 100	2.45	–
CC1(SCC(N)C(=O)O)CC(=O)NC1=O (stereo unspecified)	> 200	> 200	–
CCOC(=O)[C@@H]1CCN2CN(c3ccc(OC)cc3)N=C(c3ccccc3)[C@@]12c1ccccc1	> 200	18.2	–
COC(=O)C1=C(O)C(C(=O)OC)[C@]2(O)[C@@H](C(=O)OC)[C@H]1C[C@@H](c1ccccc1)[C@@H]2C(=O)OC (stereo partly specified)	> 200	18.6	–
O=C1Oc2ccccc2C(=O)/C1=C/N1C(=O)/C(=C/c2ccc3c(c2)OCO3)SC1=S	> 200	20.4	–
COC([C@@H](OC(=O)c1ccccc1)[C@H](OC(=O)c1ccccc1)C(O)COC(=O)c1ccccc1)n1cc(C)c(=O)[nH]c1=O (stereo partly specified)	> 200	13.2	–
ON1CCc2c([nH]c3ccccc23)C1c1ccccc1Br (stereo unspecified)	–	–	inactive
O=P(c1ccccc1)(c1ccccc1)C1CC=C(c2ccccc2)C2(CCCC2)C1 (stereo unspecified)	> 8.71	> 8.71	–
CCOC(=O)/C(=C\c1cccc(C#N)c1)C(C)=O	> 389	28.2	–
CC(=O)OC1SC(c2c(F)cccc2F)n2c1nc1ccccc12 (stereo unspecified)	38	126	–
CSC1C=C(C(C)C)CCC1(C)SC (stereo unspecified)	> 200	39.8	–
COC1/C=C/OC2(C)Oc3c(C)c(O)c4c(O)c(c(C=NN5CCCCCCCCCC5)c(O)c4c3C2=O)NC(=O)/C(C)=C/C=C/C(C)C(O)C(C)C(O)C(C)C(OC(C)=O)C1C (stereo unspecified)	> 200	6.17	–
CCOC(=O)CCC(NC(=O)c1ccc(Oc2nc3ccc(C(F)(F)F)cc3nc2-c2ccccc2)cc1)C(=O)OCC (stereo unspecified)	> 200	195	–
O=C(CC(=O)N1N=C(n2ccc3ccccc32)CC1c1ccccc1)Nc1ccc(Cl)cc1 (stereo unspecified)	> 1.2	> 1.2	–
CC(=O)N(CC1CCCN(C)C1)C1C2CC3CC(C2)CC1C3 (stereo unspecified)	> 117	46.8	–
C/C=C/C(=O)N1C(=O)OC[C@@H]1c1ccccc1	> 200	6.92	–
CC(=O)C1CC2(C(=O)C1=O)c1ccccc1-c1ccccc12 (stereo unspecified)	–	–	inactive
CCCCCCc1ccc(O)cc1O	> 200	74.1	–
COC(=O)CC(CC(=O)C(=O)OC)C(=O)OC (stereo unspecified)	> 251	> 251	–
C=C1CN(S(=O)(=O)c2ccc(C)cc2)CCCN(CC2CC=CCC2)CCCN(S(=O)(=O)c2ccc(C)cc2)C1 (stereo unspecified)	> 200	1.29	–

Compound	EC50 [µM]	IC50 [µM]	outcome
COc1ccc(C2=CC(C(C)=C(C(N)=O)C(N)=O)C=C(c3ccc(Br)cc3)C2)c(OC)c1 (stereo unspecified)	> 200	75.9	–
COc1cc(C(=O)O)c(-c2cc3c(cc2C=O)OCO3)c(OC)c1OC	> 692	> 692	–
CN(C)/C=C/C(=O)c1cccc(C(=O)/C=C/N(C)C)n1	> 19.1	> 19.1	–
CCOC(=O)C1CCCc2sc(N)c(C#N)c21 (stereo unspecified)	> 200	> 200	–
Cc1nn2c(C(=O)O)nnc2s1	> 200	> 200	–
CN/N=C(/c1nc2ccc([N+](=O)[O-])cc2[nH]c1=O)C(O)c1ccc(C(O)/C(=N\NC)c2nc3ccc([N+](=O)[O-])cc3[nH]c2=O)cc1 (stereo unspecified)	> 107	77.6	–
Cc1ccc(C(CC(=O)C(C)(C)CN2CCCCC2)SCCS(=O)(=O)O)cc1 (stereo unspecified)	> 200	3.63	–
[C-]#[O+].[C-]#[O+].[C-]#[O+].[Mo].c1ccc(P(CC[PH+](CC[PH+](CC[PH+](c2ccccc2)c2ccccc2)c2ccccc2)c2ccccc2)c2ccccc2)cc1 (stereo unspecified)	> 6.17	> 6.17	–
C[N+](C)(C)CC(=O)N/N=C(\C(=O)NC1=C(Cl)C(=O)c2ccccc2C1=O)C(C#N)c1csc(-c2ccc([N+](=O)[O-])cc2)n1 (stereo unspecified)	–	–	inactive
O=S(=O)(/C=N\N=P(c1ccccc1)(c1ccccc1)c1ccccc1)c1ccccc1-c1ccccc1	> 200	107	–
CCC(=O)c1c(NOC2OC(COC(C)=O)C(OC(C)=O)C(OC(C)=O)C2OC(C)=O)nc(OC)n(C)c1=O (stereo unspecified)	> 46.8	> 46.8	–
CCN(CC)CCN(C(=Nc1ccccc1)N1CCCCC1)c1ccccc1	> 200	1.29	–
C/C=C/C=C/c1nc(C#N)c(N)o1	> 200	85.1	–
N/C(=N\N=C/c1cc(Cl)cc(Cl)c1O)NO	–	–	inactive
CC1OC(OC2C(CO)OC(O[C@H]3CC[C@@]4(C)C(=CC[C@H]5[C@@H]6C[C@@H]7O[C@](O)(CC[C@@H](C)COC8OC(CO)C(O)C(O)C8O)[C@@H](C)[C@@H]7[C@@]6(C)CC[C@@H]54)C3)C(OC3OC(C)C(O)C(O)C3O)C2O)C(O)C(O)C1O (stereo partly specified)	> 200	1.86	–
CCCC(=O)Nc1cc(C)c(NC(=O)CN(CC)CC)c(C)c1	> 200	> 200	–
CC1(C)O[C@@H]2[C@@H]3OC(=O)C[C@@H]3[C@@H](COCc3ccccc3)[C@@H]2O1	> 200	> 200	–
Cc1cc2c(cc1Cl)SC(C(=O)c1ccc(Cl)cc1)=NS2(=O)=O	–	–	inactive
O=C1CC(O)c2c(Cl)sc(Cl)c21 (stereo unspecified)	> 200	5.25	–
CCCCCCC[CH2][Sn]([CH2]CCCCCCC)([O]c1cccc2cccnc12)[O]c1cccc2cccnc12	> 21.4	> 21.4	–
Cn1c(=O)nc2n(-c3ccc(Cl)cc3)c3cc(Cl)ccc3nc-2c1=O	–	–	inactive

Compound	EC50 [µM]	IC50 [µM]	outcome
Oc1ccc([S+](c2ccc(O)cc2)c2ccc(O)cc2)cc1	> 145	> 145	–
COC(=O)C(=O)C(C(=O)C(=O)Nc1cc([N+](=O)[O-])ccc1C#N)c1nc2ccccc2[nH]c1=O (stereo unspecified)	–	–	inactive
CC(=O)c1nc2ccccc2n1C(C)C(=O)c1ccccc1 (stereo unspecified)	> 200	11.2	–
CN1CCN(c2[nH]c(=O)n(-c3ccccc3)c(=S)c2C#N)CC1	> 200	> 200	–
CCC(OCc1ccccc1)/C(C)=C/CC(C)C=C(Br)Br (stereo unspecified)	> 933	891	–
COc1ccc(NC(=O)CC(=O)N2N=C(N(c3ccccc3)c3ccccc3)CC2c2ccccc2)cc1 (stereo unspecified)	–	–	inactive
CCOC(=O)/C(=C\c1cccc(F)c1)[Se]c1ccccc1	> 38.9	> 38.9	–
Cn1c(=O)c2c(nc3[nH]c(=O)c(Br)cn32)n(C)c1=O	> 100	20.4	–
O=C(NC12CC3CC(CC(C3)C1)C2)C(=O)c1c[nH]c2ccc(Cl)cc12	–	–	inactive
CCc1cc2c(Nc3ccccc3)c3c(nc2s1)CCCC3	> 85.1	> 85.1	–
Cc1cccc(N2C(=O)C=C(NC(CC(C)C)c3nc4ccccc4[nH]3)C2c2ccccc2)c1 (stereo unspecified)	> 200	17	–
C/C(=N\Nc1ccc([N+](=O)[O-])cc1[N+](=O)[O-])c1sc(-n2nc(-c3ccccc3)cc2-c2ccccc2)nc1C	> 126	42.7	–
O=C1CCC2=C1C[C@@H]1CCCO[C@@H]1O2	–	–	inactive
CC(=O)NC(CCCNCc1ccccc1)C(=O)NCc1ccccc1 (stereo unspecified)	> 708	> 708	–
O=S(=O)(c1cc(Cl)ccc1Cl)N1CCN(S(=O)(=O)c2cc(Cl)ccc2Cl)CC1	> 200	> 200	–
S=c1cc(S)sc2c1c(=S)sc1nc3ccccn3c(=S)c12	> 9.55	> 9.55	–
CN1CCc2c(sc3nc(Nc4ccccc4)n(N)c(=O)c23)C1	> 200	93.3	–
NC1=C(c2nc(-c3ccccc3)cs2)C(c2ccco2)c2c(c3ccccc3oc2=O)O1 (stereo unspecified)	> 200	93.3	–
CC1(C)COC(c2ccccc2Cl)N1 (stereo unspecified)	–	–	inactive
COC(=O)c1cc(C(=CCCc2ccccc2)c2cc(Br)c(OC)c(C(=O)OC)c2)cc(Br)c1OC	> 200	11.2	–
